Assay: Inhibition of pERK (unknown origin)

CC(=O)N1CCN(c2ccc(Nc3nccc(-c4sc(C(C)C)nc4-c4cccc(NS(=O)(=O)c5ccccc5)c4)n3)cn2)CC1
IC50: 7 nM
